The source of these data is ChEMBL document CHEMBL4177650, “Synthesis and biological evolution of hydrazones derived from 4-(trifluoromethyl)benzohydrazide” (Bioorg Med Chem Lett, 2017).

For series [1], the system named is Mycobacterium tuberculosis. As to the kind of experiment: Antimycobacterial activity against Mycobacterium tuberculosis H37Rv 331/88 after 14 days by micromethod. The series is classed as functional. The conditions noted are these: H37Rv 331/88, 336 h.
For series [2], the system named is Mycobacterium tuberculosis. The series is described as follows: Antimycobacterial activity against Mycobacterium tuberculosis H37Rv 331/88 after 21 days by micromethod. The series is classed as functional. The conditions noted are these: H37Rv 331/88, 504 h.
Series [3] has as its system Mycobacterium avium. The series is described as follows: Antimycobacterial activity against Mycobacterium avium 330/88 after 14 days by micromethod. The class given is functional. The conditions noted are these: 330/88, 336 h.
Series [4] has as its system Mycobacterium avium. The series is described as follows: Antimycobacterial activity against Mycobacterium avium 330/88 after 21 days by micromethod. The series is classed as functional. The conditions noted are these: 330/88, 504 h.
Series [5] concerns Mycobacterium kansasii. As to the kind of experiment: Antimycobacterial activity against Mycobacterium kansasii 6509/80 after 7 days by micromethod. The series is classed as functional. The conditions noted are these: 6509/80, 168 h.
For series [6], the system named is Mycobacterium kansasii. The series is described as follows: Antimycobacterial activity against Mycobacterium kansasii 6509/80 after 14 days by micromethod. The series is classed as functional. The conditions noted are these: 6509/80, 336 h.
Series [7] has as its system Mycobacterium kansasii. The series is described as follows: Antimycobacterial activity against Mycobacterium kansasii 6509/80 after 21 days by micromethod. The class given is functional. The conditions noted are these: 6509/80, 504 h.
Series [8] deals with Mycobacterium kansasii. The series is described as follows: Antimycobacterial activity against Mycobacterium kansasii 6509/96 after 7 days by micromethod. The class given is functional. The conditions noted are these: 6509/96, 168 h.
Series [9] relates to Mycobacterium kansasii. As to the kind of experiment: Antimycobacterial activity against Mycobacterium kansasii 6509/96 after 14 days by micromethod. The class given is functional. The conditions noted are these: 6509/96, 336 h.
The subject of series [10] is Mycobacterium kansasii. The series is described as follows: Antimycobacterial activity against Mycobacterium kansasii 6509/96 after 21 days by micromethod. The conditions noted are these: 6509/96, 504 h. The series is classed as functional.
Series [11] in a line: Solubility of the compound in Mueller-Hinton broth. The class given is physicochemical.
The test system of series [12] is HepG2. The series is described as follows: Cytostatic activity against human HepG2 cells incubated overnight followed by compound wash measured after 72 hrs by MTT assay. The series is classed as ADME, cell-based. The conditions noted are these: HepG2, 72 h.
In series [13] the test system is MONO-MAC-6. The series is described as follows: Cytostatic activity against human MONO-MAC-6 cells incubated overnight followed by compound wash measured after 72 hrs by MTT assay. The class given is ADME, cell-based. The conditions noted are these: MONO-MAC-6, 72 h. A general note: Tetrazolium assays rely on reduction of a dye to a coloured formazan, in cell work by metabolically active cells.

The test system of series [14] is HepG2. The series is described as follows: Cytotoxicity against human HepG2 cells after overnight incubation by MTT assay. The series is classed as cell-based.
In series [15] the test system is MONO-MAC-6. As to the kind of experiment: Cytotoxicity against human MONO-MAC-6 cells after overnight incubation by MTT assay. The series is classed as functional, cell-based.
Series [16] in a line: Cytotoxicity against mouse bone marrow macrophages after overnight incubation by MTT assay. The conditions noted are these: BMDM.
A short description of series [17]: Selectivity index, ratio of IC50 for human HepG2 cells to MIC for Mycobacterium tuberculosis H37Rv 331/88. The conditions noted are these: read-out: Selectivity Index. The series is classed as toxicity.

In brackets after ≈: the same amount, converted by molar mass. A value given as a limit tells only on which side of the number the result lay.

What is called MIC is the smallest concentration in the dilution series that meets the test's criterion for growth inhibition. Low values mean inhibition by little substance, high ones a need for much substance. For orientation: IC50 means the concentration needed to halve the response being measured. Low readings indicate higher potency, high ones lower potency. As for `CC12CCC(C/C1=N\NC(=O)c1ccc(C(F)(F)F)cc1)C2(C)C` (stereo not drawn), the MIC was 4 µM (≈ 1.35 µg/mL) in [1]; 4 µM (≈ 1.35 µg/mL) in [2]; above 250 µM in series [3]; above 250 µM in series [4]; above 250 µM in series [5]; above 250 µM in series [6]. For the same molecule, the MIC in [7], in [8], in series [9] and in [10] was above 250 µM each time. The solubility entry in series [11] is “Insoluble”. Moreover, the IC50 in series [12], in series [13], in series [14], in [15] and in series [16] was above 100 µM each time. Moreover, in series [17], the selectivity ratio was above 25.

As for `O=C(N/N=C/c1ccc(Br)cc1)c1ccc(C(F)(F)F)cc1`, the solubility entry in [11] was “Insoluble”.
